Patent US20260137698A1, “CYCLIN-DEPENDENT KINASE 7 INHIBITORS” (JOINT STOCK COMPANY «BIOCAD», priority 2022, published 2026)

What was measured:
[1] = Pharmacokinetics in mice plasma following oral administration; format: in vivo, CD-1 mice; details: dose 10 mg/kg; for F: absolute bioavailability, mice; for AUC(0-t) / Cmax / Tmax / half-life: male, CD-1, mouse, mice plasma; for half-life: read-out: T½ (converted)
Description: Pharmacokinetic studies of the compounds were carried out on CD-1 mice, males, aged about 8 weeks, weighing 16-29 g. The animals were given a single oral (PO) administration (intragastrically) at a dose of 10 mg/kg in a formulation in the form of a 0.2% solution of hydroxypropyl methylcellulose (HPMC) in a 5% aqueous solution of glucose and a single IV-bolus administration (intravenously) at a dose of 1.0 mg/kg for 1277 and at a dose of 2.0 mg/kg for substances CDK7_1187, CDK7_1225, CDK7_1229 and CDK7_1276 in a formulation comprising 0.2% DMSO in 5% aqueous solution of glucose.
For each substance, 21-30 animals were used for each dose of PO and IV administration. All mice were weighed and randomized before dosing.
3-5 animals were used for each time point. Each animal was sampled at one time point. At least 12 h before the start of the experiment, the animals were deprived of food while maintaining free access to water.
Animals from the PO and IV groups were subjected to blood sampling before administering the substance and after 0.5, 2, 4, 8, 12 and 24 h.
Blood was collected by cardiac puncture using the closed method. Blood was collected in a volume of 0.2 ml into polypropylene tubes comprising 20 μl of 5% EDTA. Blood plasma was separated by centrifugation at 10000 rpm for 10 minutes at 4±2° C. and transferred into clean labeled tubes.
Test blood plasma samples of mice from the experimental groups were obtained in a volume of 50 μl. Afterwards, […] of a solution of internal standard (tolbutamide (Sigma, T0891)) prepared in acetonitrile, at a concentration of 50 ng/ml, pre-cooled in the refrigerator at 2-8° C., was added to the samples, stirred in a vortex mixer (G560E, Scientific Industries) for 10 seconds and incubated at 4° C. for 15 minutes for protein precipitation. Samples were then centrifuged (5417R centrifuge, Eppendorf) at 1500 g for 10 minutes while cooling to 4° C. 150 μl of the supernatant were transferred to a 96-well plate for HPLC-MS/MS analysis. Quantitative determination of test compounds in blood plasma was carried out by absolute calibration method. The calibration curve was generated by analyzing plasma samples with supplementations of known amounts of the standard of the compound being determined. The lower limit of the quantitative determination of test compounds in blood plasma was 1 ng/ml, the analytical range of the technique was 1 ng/ml to 2000 ng/ml. The technique was partially validated in terms of selectivity, accuracy, precision, linearity, matrix effects, stability.
The Qtrap 5500 mass spectrometer (AB Sciex) in combination with the Agilent 1290 Infinity II HPLC liquid chromatograph (Agilent) and a cooling multisampler (Agilent 1290 Infinity II Multisampler G7167B) was used as an HPLC-MS/MS system. Chromatographic analysis was performed on a C18 reversed-phase HPLC column (YMC-Triart C18, 50*2 mm, 1.9 μm, YMC CO. Ltd). The mobile phase used was used a mixture of deionized water and acetonitrile supplemented with 0.1% formic acid in gradient mode, flow rate: 0.5 ml/min, column T=40° C., autosampler T=8° C., analysis time: 2.8 min. Mass spectrometric detection was performed in multiple reaction monitoring (MRM) mode. Precursor ions, fragment ions and collision energies for each substance were selected experimentally. Two Q1/Q3 transitions were used to record MRM chromatograms of the analyte and internal standard; one of transitions was used for quantitative calculations, the other one was used to confirm that the […] corresponds to a given substance. Based on the results of HPLC-MS/MS analysis of calibration samples using the Analyst 1.6.3 software, the calibration dependence of areas of chromatographic analyte peaks normalized to the signal of the internal standard on the concentration of the analyte was built.
Pharmacokinetic analysis was performed by non-compartmental method using the Phoenix WinNonlin 6.3 software package. […]

[2] = Blood-brain barrier permeability: PK in mice brain homogenate following oral administration; format: in vivo, CD-1 mice; details: male, CD-1, mouse, dose 10 mg/kg; for Kp: brain homogenate / plasma, mice, read-out: AUCbrain/AUCplasma; for AUC(0-t) / Cmax / Tmax / half-life: mice brain homogenate; for half-life: read-out: t½ (converted)
Description: The ability of substances to penetrate the blood-brain barrier and enter the central nervous system (mouse brain) was evaluated by the ratio of their areas under pharmacokinetic curves in […] and blood plasma following oral administration, characterizing tissue bioavailability to the […], and expressed as the AUCbrain/AUCplasma coefficient.
Pharmacokinetic studies of the compounds were carried out on CD-1 mice, males, aged about 8 weeks, weighing 16-29 g. Animals were subjected a single oral (PO) administration (intragastrically) at a dose of 10 mg/kg in a formulation in the form of a 0.2% solution of hydroxypropyl methylcellulose (HPMC) in a 5% aqueous solution of glucose.
21 animals were used for each substance. All mice were weighed and randomized before dosing.
3 animals were used for each time point. Biomaterials were collected from each animal at one time point. At least 12 h before the start of the experiment, the animals were deprived of food while maintaining free access to water. Blood and brain samples were collected 0.5, 2, 4, 6, 8, 12 and 16 h after administration of the substance.
All manipulations were carried out analogously to Example 54.
Perfusion of mice brains was carried out with saline solution via the vascular system. To this end, the chest was opened, the right atrium was incised with microsurgical scissors, and saline cooled to 4° C. was administered using a 10-ml syringe into the left ventricle until the liver turned white. After washing, the skull was opened and the brain removed, it was weighed and transferred to labeled 5 ml tubes.
A 4-fold volume of water was added to the brain suspension and homogenized using a homogenizer (Omni Bead Ruptor 24) 2 times for 45 seconds. Analogously, the intact mice brain homogenate was prepared, which was then used to prepare calibration samples and QC samples. The calibration curve was generated by analyzing brain homogenate samples with supplementations of known amounts of the standard of the compound being determined.
Samples were precipitated with cooled acetonitrile at 1:4 ratio, containing the internal standard tolbutamide (Sigma, T0891) at a concentration of 50 ng/ml. Samples were stirred on a vortex mixer (G560E, Scientific Industries) for 10 seconds and kept at 4° C. for 15 minutes to precipitate proteins, then centrifuged (5417R centrifuge, Eppendorf) for 10 minutes at 1500 g. […] of supernatants were collected and transferred to corresponding wells of a 96-well plate for HPLC-MS/MS analysis. Quantitative determination of test compounds in brain homogenates was carried out analogously to the procedure described in Example 54. Lower limit of quantitative determination of test compounds in brain homogenate was 0.3 ng/ml.
Pharmacokinetic analysis of data was performed analogously to the procedure described in Example 54.
In addition to main PK parameters, the ratio of concentration in the brain and plasma at the studied time points (AUCbrain/AUCplasma) was calculated to assess bioavailability in the brain (permeability through the blood-brain barrier).

| Structure (SMILES) | F [1] [%] | AUC(0-t) [1] [ng·h/mL] | Cmax [1] [ng/mL] | Tmax [1] [h] | half-life [1] [h] | Kp [2] | AUC(0-t) [2] [ng·h/mL] | Cmax [2] [ng/mL] | Tmax [2] [h] | half-life [2] [h] |
| --- | --- | --- | --- | --- | --- | --- | --- | --- | --- | --- |
| CN1CCCc2c(-c3nc(N[C@H]4CCC(C)(C)NC4)ncc3C(F)(F)F)c[nH]c2C1=O [CDK7_1187, 3-(2-{[(3S)-6,6-dimethylpiperidin-3-yl]amino}-5-(trifluoromethyl)py-rimidin-4-yl)-7-methyl-1H,4H,5H,6H,7H, 8H-pyrrolo[2,3-c]azepin-8-one] | 72.7 | 1160 | 309 | 0.5 | 1.7 |  |  |  |  |  |
| CC1(C)CC[C@H](Nc2ncc(C(F)(F)F)c(-c3c[nH]c4c3CCCN(C3CC3)C4=O)n2)CN1 [CDK7_1225, 7-cyclopropyl-3-(2-{[(3S)-6,6-dimethylpiperidin-3-yl]amino}-5-(trifluoromethyl)py-rimidin-4-yl)-1H,4H,5H,6H,7H, 8H-pyrrolo[2,3-c]azepin-8-one] | 102 | 3540 | 712 | 2 | 1.9 | 0.165 | 855 | 93.8 | 6 | 2.33 |
| CC(C)N1CCCc2c(-c3nc(N[C@H]4CCC(C)(C)NC4)ncc3C(F)(F)F)c[nH]c2C1=O [CDK7_1229, 3-(2-{[(3S)-6,6-dimethylpiperidin-3-yl]amino}-5-(trifluoromethyl)py-rimidin-4-yl)-7-(propan-2-yl)-1H,4H,5H,6H,7H, 8H-pyrrolo[2,3-c]azepin-8-one] | 102 | 5790 | 1070 | 0.5 | 2.5 | 0.182 | 909 | 136 | 0.5 | 2.25 |
| O=C1c2[nH]cc(-c3nc(N[C@H]4CCC5(CC5)NC4)ncc3C(F)(F)F)c2CCCN1C1CC1 [CDK7_1276, 3-(2-{[(6S)-4-azaspiro[2.5]octan-6-yl]amino}-5-(trifluoromethyl)py-rimidin-4-yl)-7-cyclopropyl-1H,4H,5H,6H,7H, 8H-pyrrolo[2,3-c]azepin-8-one] | 116 | 7980 | 1510 | 0.5 | 2 | 0.243 | 1940 | 335 | 0.5 | 1.99 |
| CC(C)N1CCCc2c(-c3nc(N[C@H]4CCC5(CC5)NC4)ncc3C(F)(F)F)c[nH]c2C1=O [CDK7_1277, 3-(2-{[(6S)-4-azaspiro[2.5]octan-6-yl]amino}-5-(trifluoromethyl)py-rimidin-4-yl)-7-(propan-2-yl)-1H,4H,5H,6H,7H, 8H-pyrrolo[2,3-c]azepin-8-one] | 85.8 | 3110 | 893 | 0.5 | 3.8 | 0.302 | 1750 | 226 | 2 | 2.76 |
